Key:
Assay type in all cases: in vivo
[1] = test system: Veronica persica; experiment: Pre-emergence herbicidal action against weed plants (greenhouse pot test); conditions: application rate 320 g/ha, scored visually after 3 weeks vs untreated controls, 100% = plants have died, 0% = like control plants
Source text: (§1) Seeds of mono- and dicotyledonous weed and crop plants are set out in wood fiber pots in sandy loam soil and covered with soil. The inventive compounds formulated in the form of wettable powders (WP) or as emulsion concentrates (EC) are then applied to the surface of the covering earth as an aqueous suspension or emulsion at a water application rate of 600 to 800 l/ha (converted) with addition of 0.2% wetting agent. After the treatment, the pots are placed in a greenhouse and kept under good growth conditions for the test plants. The damage to the test plants is scored visually after an experiment time of 3 weeks in comparison to untreated controls (herbicidal action in percent (%): 100% action=plants have died, 0% action=like control plants).

[2] = test system: ABUTH; experiment: Post-emergence herbicidal action against weed plants (greenhouse pot test); conditions: one-leaf stage, application rate 320 g/ha, scored visually after about 3 weeks vs untreated controls, 100% = plants have died
Experimental: (§2) Seeds of mono- and dicotyledonous weed and crop plants are set out in wood fiber pots in sandy loam soil, covered with soil and cultivated in a greenhouse under good growth conditions. 2 to 3 weeks after sowing, the trial plants are treated at the one-leaf stage. The inventive compounds formulated in the form of wettable powders (WP) or as emulsion concentrates (EC) are then sprayed onto the green plant parts as an aqueous suspension or emulsion with a water application rate of 600 to 800 l/ha (converted) with addition of 0.2% wetting agent. After the trial plants have stood in the greenhouse under optimal growth conditions for about 3 weeks, the action of the preparations is scored visually in comparison to untreated controls (herbicidal action in percent (%): 100% action=plants have died, 0% action=like control plants).

[3] = test system: Veronica persica; experiment: as above; conditions: one-leaf stage, application rate 320 g/ha, scored visually after about 3 weeks vs untreated controls, 100% = plants have died
Experimental: as §2

[4] = test system: Amaranthus retroflexus; experiment: Pre-emergence herbicidal action against weed plants (greenhouse pot test); conditions: application rate 320 g/ha, scored visually after 3 weeks vs untreated controls, 100% = plants have died, 0% = like control plants
Source text: as §1

[5] = test system: Ipomoea purpurea; experiment: Post-emergence herbicidal action against weed plants (greenhouse pot test); conditions: one-leaf stage, application rate 320 g/ha, scored visually after about 3 weeks vs untreated controls, 100% = plants have died
Experimental: as §2

SMILES: COC(=O)c1nc(-c2ccc(Cl)c(C3CO3)c2F)cc(N)c1Cl (centres unmarked) [Example 9-618]
- herbicidal action in percent, VERPE [1]: 100%
- herbicidal action in percent, ABUTH [2]: 80%
- herbicidal action in percent, VERPE [3]: 90%

SMILES: COC(=O)c1nc(-c2ccc(Cl)c(C3COC(C)(C)O3)c2F)cc(N)c1Cl (centres unmarked) [Example 9-842]
- herbicidal action in percent, VERPE [1]: 100%
- herbicidal action in percent, AMARE [4]: 90%
- herbicidal action in percent, ABUTH [2]: 80%
- herbicidal action in percent, VERPE [3]: 100%
- herbicidal action in percent, PHBPU [5]: 90%
